Drawing on BindingDB's records for doi:10.1021/jm9508853 (University of Maryland, 2021), this text covers IC50 and Kd for 24 compounds.

The target of experiment [1] is T1, B-cell lymphoma 6 protein (Homo sapiens, UniProt P41182). Description: Inhibition of human BCL6 BTP domain by ELISA assay. A general note: ELISA stands for enzyme-linked immunosorbent assay.
For experiment [2], the target named is Casein kinase II subunit alpha 3 (Homo sapiens, UniProt Q8NEV1). Briefly: Inhibition of CK2 (unknown origin).
Sequence of Casein kinase II subunit alpha 3 (Q8NEV1 whole entry, the tested form may be a part): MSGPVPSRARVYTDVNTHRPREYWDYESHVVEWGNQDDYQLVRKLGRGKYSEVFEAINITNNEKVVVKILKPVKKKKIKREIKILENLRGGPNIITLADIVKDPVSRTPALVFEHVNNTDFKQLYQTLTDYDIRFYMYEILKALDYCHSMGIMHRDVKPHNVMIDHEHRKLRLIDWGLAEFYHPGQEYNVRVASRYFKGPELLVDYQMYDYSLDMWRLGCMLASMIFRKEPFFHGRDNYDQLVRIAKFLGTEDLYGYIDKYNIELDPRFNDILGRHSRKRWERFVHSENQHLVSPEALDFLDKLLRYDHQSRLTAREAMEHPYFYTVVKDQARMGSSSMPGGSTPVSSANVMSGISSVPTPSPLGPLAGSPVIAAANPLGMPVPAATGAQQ
In experiment [3] the target is T1, B-cell lymphoma 6 protein. Description: Binding affinity to human BCL6 BTP domain assessed as dissociation constant by SPR assay.
In experiment [4] the target is T1, B-cell lymphoma 6 protein. Description: Inhibition of human BCL6 BTP domain measured by cell reporter assay.
The target of experiment [5] is T1, B-cell lymphoma 6 protein. Description: Inhibition of human BCL6 BTP domain measured by TR-FRET assay.
Experiment [6] addresses T1, B-cell lymphoma 6 protein. Description: Inhibition of human BCL6 BTP domain.
In experiment [7] the target is T1, B-cell lymphoma 6 protein. Description: Inhibition of human BCL6 BTP domain measured by fluorescence polarization assay. A general note: Polarisation of emitted light reports the rotation of a fluorescent probe.
The target of experiment [8] is T1, B-cell lymphoma 6 protein. Briefly: Irreversible inhibition of human BCL6 BTP domain measured by TR-FRET assay.
In experiment [9] the target is T1, B-cell lymphoma 6 protein. Briefly: Reversible inhibition of human BCL6 BTP domain measured by TR-FRET assay.

Some results are limits rather than exact numbers.

`CC(=O)N[C@@H](Cc1c[nH]c2ccccc12)C(=O)N[C@@H](CCCNC(=N)N)C(=O)N[C@H](C(=O)N1CCC[C@H]1C(=O)O)C(C)C` returned an IC50 in experiment [1] of 170 µM.
`CSCC[C@H](N)C(=O)N[C@@H](CO)C(=O)N[C@@H](Cc1c[nH]c2ccccc12)C(=O)N[C@@H](CCCNC(=N)N)C(=O)N[C@H](C(=O)N1CCC[C@H]1C(=O)O)C(C)C` registered an IC50 in [1] of 620 µM.
`CC(C)[C@H](NC(=O)[C@H](CCCNC(=N)N)NC(=O)[C@H](Cc1c[nH]c2ccccc12)NC(=O)[C@@H](N)CO)C(=O)N1CCC[C@H]1C(=O)O`: inhibition in experiment [1] was half-maximal at 1500 µM (IC50).
Turning to `O=C1CCc2cc3cc(c2N1Cc1ccccc1)OC/C=C/CO[C@H]1C[C@@H](CO)N(C1)c1cc(n2ncc(Cl)c2n1)N3`, the IC50 in experiment [2] is above 10 µM.
As to `N#Cc1cnn2c3cc(nc12)N1C[C@H](C[C@H]1CO)OC/C=C/COc1cc(cc2c1NC(=O)CC2)N3`, the concentration for half-maximal inhibition (IC50) in experiment [2] was 0.64 µM; in experiment [4], 2 µM; in experiment [5], 0.0029 µM. Besides, the Kd in experiment [3] was found to be 0.0065 µM.
With `Cc1ccccc1CN1C(=O)CCc2cc3cc(c21)OC/C=C/CO[C@H]1C[C@@H](CO)N(C1)c1cc(n2ncc(Cl)c2n1)N3`, the IC50 in [2] is above 10 µM.
On the same count and under the same terms, under `COc1cccc(CN2C(=O)CCc3cc4cc(c32)OC/C=C/CO[C@H]2C[C@@H](CO)N(C2)c2cc(n3ncc(Cl)c3n2)N4)c1` stands above 10 µM.
On to `Nc1ncc(Cl)c(Nc2ccccc2)n1`, for which the Kd in experiment [3] worked out at 68 µM.
For the compound `CCNc1cc(-c2cccnc2)nc2ccnn12`, the Kd in [3] stood at 690 µM.
For `CN(c1ncccc1CNc1nc(Nc2ccc3c(c2)CC(=O)N3)ncc1C(F)(F)F)S(C)(=O)=O`, the Kd in experiment [3] is 88 µM.
With `CNC(=O)COc1cc2cc(Nc3nc(-n4nc(C)cc4C)ncc3Cl)ccc2n(C)c1=O`, half-maximal inhibition in experiment [6] (IC50) required 0.012 µM.
For `N#Cc1cnn2c(Nc3ccc4c(c3)CCC(=O)N4)cc(N3CCC[C@H]3CO)nc12`, the Kd in experiment [3] came to 0.5 µM. This compound also gave an IC50 in experiment [5] of 0.37 µM.
For `N#Cc1cnn2c(Nc3ccc4c(c3)CCC(=O)N4)cc(N3CCC[C@H]3CC(=O)O)nc12` the same measures were 1.1 µM and 0.35 µM.
Turning to `N#Cc1c(NCC2CC2)ccnc1Cl`, 207 µM corresponded to half-maximal inhibition in experiment [7] (IC50).
The compound `Cn1c(=O)n(C)c2cc(Nc3ncccc3C#N)ccc21` showed an IC50 in [7] of 86 µM.
Take `Cn1c(=O)n(C)c2cc(Nc3cc(SCc4ccccc4)ncn3)ccc21`: inhibition in [7] was half-maximal at 70 µM (IC50).
`N#Cc1c(NCc2ccccc2)ccnc1Cl` had an IC50 in [7] of 120 µM.
For the compound `Cn1c(=O)n(CCC(C)(C)O)c2cc(Nc3ccnc(Cl)c3C#N)ccc21`, the IC50 in experiment [5] came out at 0.86 µM.
`O=C1Cc2cc(Nc3nc(NCc4cccc(S(=O)(=O)F)c4)ncc3Cl)ccc2N1` displayed an IC50 in [8] of 0.251 µM.
With `CNC(=O)COc1cc2cc(Nc3nc(NCc4cccc(S(=O)(=O)F)c4)ncc3Cl)cc(OC)c2n(C)c1=O`, half-maximal inhibition in experiment [8] (IC50) was put at 0.152 µM.
In turn, `CNC(=O)COc1cc2cc(Nc3nc(NCc4cccc(S(C)(=O)=O)c4)ncc3Cl)cc(OC)c2n(C)c1=O` came in with an IC50 in [9] of 0.368 µM.
Take `Cc1cc(C)n(-c2ncc(Cl)c(Nc3ccc(Cl)cc3)n2)n1`: in experiment [6], the IC50 is above 20 µM.
In experiment [5], `Nc1ncnc(Nc2ccccc2Cl)n1` yielded an IC50 of 830 µM.
Take `Nc1ncnc(Nc2ccccc2)n1` [Amanozine]: in experiment [3], the Kd is 1200 µM.

What is called IC50 is the concentration needed to halve the response being measured. As usually defined, the Kd is a measure of binding affinity in units of concentration.
